Legend:
Type in all cases: cell-based
[1] = Annexin V / SYTOX AADvanced flow cytometry of cell death states; details: human, read-out: viable cells (flow cytometry, Annexin V/SYTOX staining)
Experimental: (§1) The REM-I platform was used to obtain images of cells at different states of dying than one another. More specifically, live, viable Jurkat (T Lymphocyte), Clone E6-1 cells were cultured in RPMI-1640 medium (ThermoFisher Scientific) with 10% fetal bovine serum (FBS) at 37° C. with 5% CO2. A suspension of the cells was prepared at a concentration of 2×10^6 cells/mL for apoptosis and necrosis induction. The following treatments were used to induce cell death (e.g., via apoptosis or necrosis) in different samples of the suspension.
(§2) Sample 2: Camptothecin (ab120115, Abcam), a DNA topoisomerase inhibitor, was administered to the suspension of Jurkat cells at a final concentration of 10 μM and incubated at 37° C. with 5% CO2 for six hours to induce apoptosis by perturbing topoisomerase I.
(§3) Sample 3: Staurosporine (ab120056, Abcam), a protein kinase inhibitor, was administered to the suspension of Jurkat cells at a final concentration of 2 μM and incubated at 37° C. with 5% CO2 for either three hours or for eighteen hours to induce apoptosis by G2/M cell cycle arrest.
(§4) Following treatment, each of the samples was split into two aliquots, one for use in REM-I morphology profiling and one for use in flow cytometry assessment. For morphology profiling, treated cells at a concentration of 3×10^6 cells per mL in a single cell suspension were run on the REM-I platform with a flow rate of about 300 cells/second, and more than about 40,000 images were captured. The data suite 190, described with reference to FIG. 1, was trained using the multi-dimensional feature vectors from the cells and used to generate reduced-dimensionality plots which will be described with reference to FIGS. 16, 17, and 18. For flow cytometry, 1×10^6 treated cells in 100 μL were incubated with 5 μL of PACIFIC BLUE™ Annexin V stock (per manufacturer recommendation) and 1 μL of SYTOX™ AADVANCED™ (A35136, ThermoFisher) for 30 minutes at room temperature and then analyzed with the BD FACSMELODY™ cell sorter and BD FACSCHORUS™ software (BD Biosciences, California).

[2] = tested on: Jurkat (T Lymphocyte), Clone E6-1 cells; assay: as above
Experimental: as §1, §2, §3, §4

[3] = tested on: Jurkat (T Lymphocyte), Clone E6-1 cells; assay: REM-I label-free high-dimensional morphology profiling (UMAP); details: 10 μM camptothecin, 6 hours, unstained brightfield images
Experimental: as §1
Sample 2: Camptothecin (ab120115, Abcam), a DNA topoisomerase inhibitor, was administered to the suspension of Jurkat cells at a final concentration of 10 μM and incubated at 37° C. with 5% CO2 for six hours to induce apoptosis by perturbing topoisomerase I. […]
Following treatment, each of the samples was split into two aliquots, one for use in REM-I morphology profiling and one for use in flow cytometry assessment. […] For flow cytometry, 1×10^6 treated cells in 100 μL were incubated with 5 μL of PACIFIC BLUE™ Annexin V stock (per manufacturer recommendation) and 1 μL of SYTOX™ AADVANCED™ (A35136, ThermoFisher) for 30 minutes at room temperature and then analyzed with the BD FACSMELODY™ cell sorter and BD FACSCHORUS™ software (BD Biosciences, California).

[4] = 2 μM staurosporine, eighteen hours
[5] = 2 μM staurosporine, three hours

Row | SMILES | viability at 3 h, 2 μM ([1]; Jurkat cells, 2 μM staurosporine, three hours) | dead cells (flow cytometry, Annexin V/SYTOX staining) [2, 4] | necrotic cells (flow cytometry, Annexin V/SYTOX staining) [2, 4] | apoptotic cells (flow cytometry, Annexin V/SYTOX staining) [2, 5] | dead cells (flow cytometry, Annexin V/SYTOX staining) [2, 5] | necrotic cells (flow cytometry, Annexin V/SYTOX staining) [2, 5] | viability at 6 h, 10 μM ([1]; Jurkat (T lymphocyte), Clone E6-1 cells, 10 μM camptothecin, six hours, 37° C.) | apoptotic cells (flow cytometry, Annexin V/SYTOX staining) ([2]; 10 μM camptothecin, six hours, 37° C.) | morphological profile on UMAP compared to healthy cells of Sample 1 [3]
1 | CN[C@@H]1C[C@H]2O[C@@](C)([C@@H]1OC)n1c3ccccc3c3c4c(c5c6ccccc6n2c5c31)C(=O)NC4 [staurosporine, Staurosporine] | 14.5% | 12.4% | 85.0% | 6.96% | 14.1% | 64.5% |  |  | 
2 | CC[C@@]1(O)C(=O)OCc2c1cc1n(c2=O)Cc2cc3ccccc3nc2-1 [Sample 2, Camptothecin] |  |  |  |  |  |  | 71% | 28.7% | morphological shift in the main population

— patent US20250218201A1, “ANALYZING PHENOTYPES OF CELLS” (priority 2023, published 2025)
